Experimental data from US3992540A, “3-Quinoline-substituted 4-oxy-carboxamides” (Roussel-UCLAF, priority 1974, dated 1976).

Experiments:
[1] = system: stretchings provoked by intraperitoneal injection of acetic acid to mice; assay: Analgesic activity, acetic acid stretching (writhing) test in mice (Koster et al); assay type: in vivo; conditions: Mus musculus, oral, 30 minutes before acetic acid injection (100 mg/kg i.p.), stretchings totaled over 15 minutes, read-out: DA50, dose which reduced by 50% the number of stretchings as compared to the controls
Protocol: The test was based on that of Koster et al [Fed. Proc., Vol. 18 (1959), p. 412] in which the intraperitoneal injection of acetic acid to mice provokes repeated stretching and twisting movements which persist for more than 6 hours. Analgesics prevent or suspress these syndromes which are considered to be an exteriorization of a diffuse abdominal pain. A 1% solution of acetic acid in water was used at a dose of 0.01 ml/g or 100 mg/kg of acetic acid to release the syndrome.
The test product was orally administered 30 minutes before the acetic acid injection and the mice were fasted for 24 hours before the start of the test. The stretchings for the mice were observed and totaled for each mouse in a 15 minutes observation period starting just after the acetic acid injection. The results were expressed as DA50, that dose which reduced by 50% the number of stretchings as compared to the controls and the DA50 for N-[2-thiazolyl]-4-hydroxy-8 -trifluoromethyl-3-quinoline-carboxamide was 5 mg/kg; for N-[2 -thiazolyl]-4-hydroxy-8-chloro-3-quinoline-carboxamide was 4 mg/kg; and for N-[2-thiazolyl]-4-hydroxy-7-trifluoromethyl- 3-quinoline-carboxamide was 7 mg/kg.

[2] = Acute toxicity in mice, intraperitoneal; conditions: mouse, in vivo, ip, observed for a week, graphically determined by Miller et al method, read-out: DL50
Protocol: The acute toxicity was determined on groups of 10 mice weighing between 18-22 g and the test product was administered intraperitoneally in increasing dose in suspensions at 0.25 % in carboxymethyl-cellulose added of Tween 80.

mice = conditions: mouse, in vivo, po, 500 mg/kg

Compound | ED50 [1] | LD50 at 168 h [2] | tolerance when orally administered (mice)
O=C(Nc1nccs1)c1cnc2cc(C(F)(F)F)ccc2c1O [N-[2-thiazolyl]-4-hydroxy-7-trifluoromethyl-3-quinoline-carboxamide] | 7 mg/kg |  | 
O=C(Nc1nccs1)c1cnc2c(Cl)cccc2c1O [N-[2-thiazolyl]-4-hydroxy-8-chloro-3-quinoline-carboxamide] | 4 mg/kg |  | 
O=C(Nc1nccs1)c1cnc2c(C(F)(F)F)cccc2c1O [N-[2-thiazolyl]-4-hydroxy-8-trifluoromethyl-3-quinoline-carboxamide] | 5 mg/kg | 225 mg/kg | very well tolerated
